Measurements taken from patent US20110195929A1, “COMPOUNDS FOR THE TREATMENT OF FLAVIVIRAL INFECTIONS” (SUMMIT CORPORATION PLC, priority 2008, published 2011).

Experiments:
α-D-glucosidase [1] = molecular target: T1, α-D-glucosidase (Oryza sativa subsp. japonica, UniProt Q653V7); assay: Glycosidase inhibition: α-D-glucosidase (rice); assay type: biochemical, rice (Oryza sativa); settings: 1 mg/ml; pH 6.0, 20° C; read-out: % inhibition α-gluc (rice)
T1 construct: purchased Sigma
Protocol: (§1) Inhibition of the N-linked glycan trimming enzymes alpha-Glucosidases I and II or alpha-Mannosidases I and II are thought to be related to the anti-viral activity of castanospermine (Compound 104) and 1-deoxynojirimycin (Compound 193). […] All enzymes were purchased from Sigma, as were the appropriate p-nitrophenyl substrates. Assays were carried out in microtitre plates. Enzymes were assayed in 0.1M citric acid/0.2M di-sodium hydrogen phosphate (McIlvaine) buffers at the optimum pH for the enzyme. All assays were carried out at 20° C. For screening assays the incubation assay consisted of 10 μl of enzyme solution, 10 μl of inhibitor solution (made up in water at 5 mM) and 50 μl of the appropriate 5 mM p-nitrophenyl substrate (3.57 mM final conc.) made up in McIlvaine buffer at the optimum pH for the enzyme.
(§2) The reactions were stopped with 0.4M glycine (pH 10.4) during the exponential phase of the reaction, which was determined at the beginning of the assay using blanks with water, which were incubated for a range of time periods to measure the reaction rate using 5 mM substrate solution. Endpoint absorbances were read at 405 nm with a Bio-rad microtitre plate reader (Benchmark). Water was substituted for the inhibitors in the blanks.

α-D-glucosidase [2] = assay: Glycosidase inhibition: α-D-glucosidase (Bacillus); assay type: biochemical, Bacillus stearothermophilus; settings: 1 mg/ml; pH 6.0, 20° C
Protocol: as §1, §2

[3] = test system: N-acetyl-β-D-glucosaminidase; assay: Glycosidase inhibition: N-acetyl-β-D-glucosaminidase; assay type: biochemical, Bovine kidney; settings: 1 mg/ml; pH 4.25, 20° C
Protocol: as §1, §2

α-D-galactosidase = molecular target: T2, α-D-galactosidase (Coffea arabica, UniProt Q42656); assay: Glycosidase inhibition: α-D-galactosidase; assay type: biochemical, Green coffee beans (Coffea sp.); settings: 1 mg/ml; pH 6.5, 20° C
T2 construct: purchased Sigma
Protocol: as §1, §2

α-L-fucosidase = molecular target: T3, α-L-fucosidase (Bos taurus, UniProt Q2KIM0); assay: Glycosidase inhibition: α-L-fucosidase; assay type: biochemical, Bovine kidney; settings: 1 mg/ml; pH 5.5, 20° C
T3 construct: purchased Sigma; host or cells: bovine kidney
T3 sequence (Q2KIM0 23-468): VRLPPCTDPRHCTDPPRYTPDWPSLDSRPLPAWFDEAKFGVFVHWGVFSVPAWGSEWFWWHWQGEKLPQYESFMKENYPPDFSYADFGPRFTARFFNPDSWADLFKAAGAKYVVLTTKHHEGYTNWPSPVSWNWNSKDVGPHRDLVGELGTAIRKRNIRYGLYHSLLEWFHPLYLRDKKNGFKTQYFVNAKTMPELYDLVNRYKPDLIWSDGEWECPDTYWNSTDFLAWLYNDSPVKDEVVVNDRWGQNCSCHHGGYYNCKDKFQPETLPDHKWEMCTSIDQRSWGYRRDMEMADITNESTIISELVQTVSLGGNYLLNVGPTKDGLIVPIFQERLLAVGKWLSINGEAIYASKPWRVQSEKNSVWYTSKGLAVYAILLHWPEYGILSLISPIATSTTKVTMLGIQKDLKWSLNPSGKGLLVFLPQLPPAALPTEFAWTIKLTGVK
Protocol: All enzymes were purchased from Sigma, as were the appropriate p-nitrophenyl substrates. Assays were carried out in microtitre plates. Enzymes were assayed in 0.1M citric acid/0.2M di-sodium hydrogen phosphate (McIlvaine) buffers at the optimum pH for the enzyme. All assays were carried out at 20° C. For screening assays the incubation assay consisted of 10 μl of enzyme solution, 10 μl of inhibitor solution (made up in water at 5 mM) and 50 μl of the appropriate 5 mM p-nitrophenyl substrate (3.57 mM final conc.) made up in McIlvaine buffer at the optimum pH for the enzyme.
as §2

α-D-glucosidase [4] = molecular target: T4, α-D-glucosidase (Saccharomyces cerevisiae, UniProt P53341); assay: Glycosidase inhibition: α-D-glucosidase (yeast); assay type: biochemical, Saccharomyces cerevisiae (Baker's yeast); settings: 1 mg/ml; pH 6.0, 20° C; read-out: % inhibition α-gluc (yeast)
T4 construct: purchased Sigma
Protocol: as §1, §2

T1 sequence (Q653V7 34-885): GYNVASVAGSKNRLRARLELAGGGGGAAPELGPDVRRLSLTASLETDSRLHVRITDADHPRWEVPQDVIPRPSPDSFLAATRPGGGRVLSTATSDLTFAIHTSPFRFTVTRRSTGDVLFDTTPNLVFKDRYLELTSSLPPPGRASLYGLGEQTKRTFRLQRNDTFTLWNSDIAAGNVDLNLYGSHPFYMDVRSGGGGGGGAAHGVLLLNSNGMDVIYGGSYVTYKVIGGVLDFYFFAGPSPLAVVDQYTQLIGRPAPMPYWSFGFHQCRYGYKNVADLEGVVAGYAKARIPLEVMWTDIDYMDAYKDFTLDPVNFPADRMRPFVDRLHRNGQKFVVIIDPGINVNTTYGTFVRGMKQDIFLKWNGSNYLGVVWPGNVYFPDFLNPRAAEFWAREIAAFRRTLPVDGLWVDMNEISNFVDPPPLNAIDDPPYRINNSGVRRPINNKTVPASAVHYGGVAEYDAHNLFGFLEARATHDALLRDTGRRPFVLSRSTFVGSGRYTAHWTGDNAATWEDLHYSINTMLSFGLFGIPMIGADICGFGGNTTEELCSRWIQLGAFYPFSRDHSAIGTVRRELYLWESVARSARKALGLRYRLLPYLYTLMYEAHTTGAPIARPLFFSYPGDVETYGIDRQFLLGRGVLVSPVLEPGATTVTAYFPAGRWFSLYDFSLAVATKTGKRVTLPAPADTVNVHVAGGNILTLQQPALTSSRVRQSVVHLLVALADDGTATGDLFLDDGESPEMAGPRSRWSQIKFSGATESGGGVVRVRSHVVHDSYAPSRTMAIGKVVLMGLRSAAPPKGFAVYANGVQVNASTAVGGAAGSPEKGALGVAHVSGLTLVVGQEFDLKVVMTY
T2 sequence (Q42656 16-378): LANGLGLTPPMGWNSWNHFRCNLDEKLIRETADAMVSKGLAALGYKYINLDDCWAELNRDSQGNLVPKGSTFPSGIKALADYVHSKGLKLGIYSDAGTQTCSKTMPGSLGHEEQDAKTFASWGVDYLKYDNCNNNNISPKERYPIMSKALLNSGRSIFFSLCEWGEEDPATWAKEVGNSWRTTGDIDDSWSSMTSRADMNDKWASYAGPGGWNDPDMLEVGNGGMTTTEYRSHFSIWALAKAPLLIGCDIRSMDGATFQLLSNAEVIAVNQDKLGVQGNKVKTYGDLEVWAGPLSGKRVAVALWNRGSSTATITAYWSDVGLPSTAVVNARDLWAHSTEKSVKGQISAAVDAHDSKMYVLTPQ
T4 sequence (P53341 whole entry): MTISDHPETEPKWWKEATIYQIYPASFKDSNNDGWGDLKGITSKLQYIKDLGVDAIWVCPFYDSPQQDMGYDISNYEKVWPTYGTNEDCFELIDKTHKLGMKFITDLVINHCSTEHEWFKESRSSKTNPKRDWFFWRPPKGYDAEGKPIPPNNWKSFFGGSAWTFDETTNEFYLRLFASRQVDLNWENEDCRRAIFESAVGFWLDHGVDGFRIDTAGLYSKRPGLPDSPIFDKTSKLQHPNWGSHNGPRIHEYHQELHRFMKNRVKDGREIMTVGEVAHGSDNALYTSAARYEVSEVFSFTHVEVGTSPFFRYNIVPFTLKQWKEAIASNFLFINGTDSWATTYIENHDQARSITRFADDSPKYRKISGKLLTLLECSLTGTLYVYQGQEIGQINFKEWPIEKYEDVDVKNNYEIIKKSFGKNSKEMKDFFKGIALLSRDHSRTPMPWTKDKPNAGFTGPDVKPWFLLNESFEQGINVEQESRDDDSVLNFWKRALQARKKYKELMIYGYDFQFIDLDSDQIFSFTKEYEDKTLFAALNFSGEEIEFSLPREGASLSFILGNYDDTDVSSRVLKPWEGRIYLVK

Structure (SMILES) | inhibition at 1000 µg/mL (α-D-glucosidase [1]) | % inhibition α-gluc (Bacillus) (α-D-glucosidase [2]) | % inhibition N-acetyl-β-gluc [3] | inhibition at 1000 µg/mL (α-D-galactosidase) | inhibition at 1000 µg/mL (α-L-fucosidase) | inhibition at 1000 µg/mL (α-D-glucosidase [4])
CC[C@@H]1N[C@@H](CO)[C@H](O)[C@@H](O)[C@@H]1O [Compound 23, (2S,3R,4S,5S,6S)-2-ethyl-6-(hydroxymethyl)piperidine-3,4,5-triol] | 66% | 0% | 0% | 0% | 0% | 0%
CC[C@@H](O)[C@H]1N[C@H](CO)[C@@H](O)[C@@H]1O [Compound 62, (2R,3R,4R,5R)-2-(hydroxymethyl)-5-((R)-1-hydroxypropyl)pyrrolidine-3,4-diol] | 32% | 65% | 20% | 0% | 0% | 0%
CC(O)[C@H](O)[C@H]1N[C@H](CO)[C@@H](O)[C@@H]1O (stereo partly drawn) [Compound 63, (2R,3R,4R,5R)-2-((1R)-1,2-dihydroxypropyl)-5-(hydroxymethyl)pyrrolidine-3,4-diol] | 41% | 36% | 0% | 0% | 0% | 0%
O[C@H]1[C@H](O)[C@@H](O)CN2CC[C@H](O)[C@H]12 [Compound 104, Castanospermine, reference compound] | 90% | 0% | 0% | 0% | 0% | 0%
OC[C@@H]1NC[C@H](O)[C@@H]1O [Compound 167, (2S,3R,4S)-2-(hydroxymethyl)pyrrolidine-3,4-diol] | 58% | 35% | 19% | 32% | 28% | 0%
